{"source": "patent US7314882B2", "about": "“Bicyclic heterocycles as cannabinoid receptor modulators” (Bristol-Myers Squibb Company, priority 2005, dated 2008)", "origin": "cited, not measured here", "system": "body weight", "conditions": "16 week trial period"}
{"smiles": "Cc1c(C(=O)NN2CCCCC2)nn(-c2ccc(Cl)cc2Cl)c1-c1ccc(Cl)cc1", "note": "[SR-141716]", "values": [{"measurement": "body weight in human subjects", "value": "dose-dependently reduced body weight"}]}
